Data taken from PMC10044114, “Mechanisms of Antimicrobial Peptides from Bagasse against Human Pathogenic Bacteria” (Antibiotics, 2023).

Legend:
Experiment in all cases: Broth dilution growth inhibition (OD600)
Format in all cases: cell-based
[1] = tested on: Pseudomonas aeruginosa ATCC28753; details: TSB, mean ± SD, triplicate; for Inhibitory percentage, P. aeruginosa: synthetic peptides
Procedure: (§1) Three human pathogenic bacteria were selected for investigation, namely Bacillus subtilis ATCC6633, Pseudomonas aeruginosa ATCC28753, and Burkholderia cepacia ATCC25416.
(§2) In evaluating antibacterial activity by the broth dilution assay, human pathogenic bacteria were first prepared in tryptic soy agar (TSA) (Difco BBL, Sparks, MD, USA) for 24 h at 28 °C. Then, a single colony was cultured in tryptic soy broth (TSB) (Difco BBL, Sparks, MD, USA) for 12–16 h to reach an inoculum of 0.05 at OD600. The antibacterial activity of lower than 3 kDa protein hydrolysates/peptides was then determined against the pathogens in triplicate using 96-well microplates, with bacteria in TSB, phosphate-buffered saline (PBS), and antibiotic treatment (ampicillin and kanamycin) used as controls. The final concentration of antibiotics and protein hydrolysates/peptides was 100 µg/mL. After incubation for 0, 2, 4, and 6 h, the OD600 was documented using a microplate reader (Synergy H1 Hybrid Multi-Mode Reader, Biotek, Winusky, VT, USA).
(§3) A completely randomized design was used: protein hydrolysates/peptides from six agricultural wastes, seven agro-industrial wastes, and two fishery wastes as treatments; and human pathogenic bacteria P. aeruginosa ATCC28753, Bacillus subtilis ATCC6633, and Burkholderia cepacia ATCC25416 grown in tryptic soy broth (TSB) (Difco BBL, Sparks, MD, USA) at 28 °C in 96-well plates as experimental units. Experiments were conducted in triplicate and all the results shown in this study are presented as mean ± standard deviation (SD).

[2] = tested on: Burkholderia cepacia ATCC25416; details: TSB, mean ± SD, triplicate; for Inhibitory percentage, Burkholderia cepacia: 100 µg/mL
Procedure: as §1, §2, §3

[3] = tested on: Bacillus subtilis ATCC6633; details: TSB, mean ± SD, triplicate; for Inhibitory percentage, Bacillus subtilis: 100 µg/mL
Procedure: as §1, §2, §3

[4] = lower than 3 kDa hydrolysates and antibiotics, 6 h after treatment, 96-well

Molecule | Inhibitory percentage, P. aeruginosa ([1]; 100 µg/mL) | Inhibitory percentage, Burkholderia cepacia ([2]; synthetic peptides) | Inhibitory percentage, Bacillus subtilis ([3]; synthetic peptides) | other results
CC1(C)S[C@@H]2[C@H](NC(=O)[C@H](N)c3ccccc3)C(=O)N2[C@H]1C(=O)O [ampicillin, reference compound] |  |  |  | inhibition at 100 µg/mL ([1]; Pseudomonas aeruginosa, ATCC28753, lower than 3 kDa hydrolysates and antibiotics, 6 h after treatment, 96-well, read-out: Inhibitory percentage, Pseudomonas aeruginosa): 32 ± 1.59%; inhibition at 100 µg/mL ([2]; Burkholderia cepacia, ATCC25416, lower than 3 kDa hydrolysates and antibiotics, 6 h after treatment, 96-well, read-out: Inhibitory percentage, Burkholderia cepacia): 32.8 ± 4.18%; inhibition at 100 µg/mL ([3]; Bacillus subtilis, ATCC6633, lower than 3 kDa hydrolysates and antibiotics, 6 h after treatment, 96-well, read-out: Inhibitory percentage, Bacillus subtilis): 85.2 ± 10.6%
NC[C@H]1O[C@H](O[C@H]2[C@H](O)[C@@H](O[C@H]3O[C@H](CO)[C@@H](O)[C@H](N)[C@H]3O)[C@H](N)C[C@@H]2N)[C@H](O)[C@@H](O)[C@@H]1O [kanamycin, reference compound] |  |  |  | Inhibitory percentage, Pseudomonas aeruginosa ([1]; lower than 3 kDa hydrolysates and antibiotics, 100 µg/mL, 6 h after treatment, 96-well): 39.00 ± 2.81%; Inhibitory percentage, Burkholderia cepacia [2, 4]: 87.02 ± 0.42%; Inhibitory percentage, Bacillus subtilis [3, 4]: 77.60 ± 0.85%
GAFHVTGL [compound 1, synthetic peptide from bagasse (AW6) hydrolysate; Photosystem II CP47 reaction center protein fragment] | 21.74 ± 0.96 | 9.09 ± 0.04 | 3.82 ± 0.09 | 
NLWSNEINQDMAEF [Peptide no.3, Asn-Leu-Trp-Ser-Asn-Glu-Ile-Asn-Gln-Asp-Met-Ala-Glu-Phe, synthetic peptide from bagasse (AW6) hydrolysate; LRR receptor-like serine/threonine-protein kinase GSO2 fragment] | 24.87 ± 0.81 | 23.32 ± 0.68 | 11.33 ± 0.29 | 
VLSSWGDESTL [compound 2, synthetic peptide from bagasse (AW6) hydrolysate; RNA helicase fragment] | 23.61 ± 0.12 | 14.92 ± 0.72 | 4.45 ± 0.03 | 
VSNCL [Peptide no.4, Val-Ser-Asn-Cys-Leu, synthetic peptide from bagasse (AW6) hydrolysate; 3-ketoacyl-CoA synthase fragment] | 24.70 ± 0.81 | 20.56 ± 0.28 | 10.39 ± 0.33 | 
WDTDNLSPDAVAAIKAAHPNVAVMAGL [compound 5, synthetic peptide from bagasse (AW6) hydrolysate; Chitinase fragment] | 30.34 ± 0.95 | 20.51 ± 0.48 | 5.97 ± 0.06 | 
